Converted amounts (≈) assume the structure as drawn. “Also recorded” adds a separate entry of the source.

One may read the solubility as the dissolved amount per volume that the medium holds. What is called Solubility is the concentration that dissolves in the medium under given conditions.

Type in all cases: physicochemical
Data set [1] can be described thus: Physical stability upon exposure to accelerated aging conditions (AAC, 40° C./75% RH), re-analysis by HT-XRPD. The following applies: for Solid forms Vacuum AAC: vacuum-dried solids after AAC (40° C./75% RH, 2 days); for Physical stability upon exposure to AAC: HT-XRPD before and after.
A short description of data set [2]: Physical stability of solid forms upon drying under vacuum, HT-XRPD. The settings on record: for Solid forms Vacuum: form after drying under deep vacuum (5 mbar, 18 h), HT-XRPD; for Physical stability upon drying under deep/high vacuum: oxalate, phosphate, malonate forms, 5 mbar, 18 h. As for the experimental part: (§1) Amorphous voruciclib oxalate salt, generated by freeze-drying, was used to start the thermocycling experiments. Suspensions were prepared in the selected solvent systems at RT. Subsequently, the mixtures were subjected to a temperature profile. After the temperature profile, the solids were separated from the solutions by centrifugation and were dried at ambient conditions and under deep vacuum before being harvested and analyzed by HT-XRPD. The liquid phases were also dried under deep vacuum before being harvested and analyzed by HT-XRPD. All solids were exposed to AAC (40° C./75% RH, 2 days).
After the temperature profile, the solids were separated from the liquids by centrifugation and the solid phase was dried at ambient conditions and under deep vacuum (5 mbar) before being harvested and analyzed by HT-XRPD. The liquid phases were dried under deep vacuum (5 mbar) and the recovered solids were analyzed by HT-XRPD. All solids were then exposed to accelerated aging conditions (40° C./75% RH, 2 days) followed by HT-XRPD re-analysis.
as §1, with “voruciclib phosphate” for “voruciclib oxalate”, “profile. Upon completion of” for “profile. After”, “dried under” for “dried at”
After the temperature profile, the solids were separated from the liquids by centrifugation and the solid phase was dried under ambient conditions and under deep vacuum (5 mbar, 18 h) before being harvested and analyzed by HT-XRPD. The liquid phases were dried under deep vacuum (5 mbar, 18 h) and the recovered solids were analyzed by HT-XRPD. All solids were then exposed to accelerated aging conditions (40° C./75% RH, 2 days) followed by HT-XRPD re-analysis.
Amorphous voruciclib malonate salt, generated by freeze-drying, was used to start the thermocycling experiments. Suspensions were prepared in the selected solvent systems at RT and were subjected to three thermocycles between 50 and 5° C., followed by aging at 25° C. for 3 days. Upon completion of the aging time, the solids were separated from the liquids by centrifugation and they were dried at ambient conditions and under deep vacuum (5 mbar) before being harvested and analyzed by HT-XRPD.
After the temperature profile the solids were separated from the solution by centrifugation and they were dried at ambient conditions and under deep vacuum before being harvested and analyzed by HT-XRPD.

Data set [3] can be described thus: Solubility of salts in water and in 0.2 M phosphate buffer pH 6 at 37° C. after 4 hours (HPLC-DAD). The following applies: for pH (4 h): pH at end of equilibration. As for the experimental part:
Two sets of solubility experiments were performed. […] In the second set of solubility experiments about 5 mg of the salt was weighed in a standard 1.8 mL HPLC vial. Subsequently, aliquots of 200 μL of aqueous medium were added up to a maximum of 1 mL, while making observations regarding the dissolution behavior of the salts. The vials were left to equilibrate at 37° C. with continuous stirring (see Table 25 for details). After 4 hours the solids were separated from the liquid by centrifugation and the liquid phase was further filtrated through a […] PTFE filter to remove any particulate matter. The concentration of solute was determined by HPLC-DAD analysis. A calibration curve was made from two independent stock solutions of voruciclib prepared in acetonitrile/water. The pH was recorded at the end of the equilibration time.

Data set [4] in a line: Approximate solubility assessment of the free base by the solvent (aliquot) addition method. The following applies: for Solubility in words / solubility: RT; for solubility: thermodynamic from solid. The procedure: The approximate solubility of the free base was assessed in several organic solvents (Table 17) by the solvent addition method. To about 5 mg of free base, aliquots of solvent were added until complete dissolution was observed or until a concentration […] was reached. Aliquots of 100 μL were used up to 2 mL, followed by aliquots of 1 mL up to 8 mL. […] Based on the solubility results, in some embodiments the crystallization solvents selected for salt formation were THF, ethanol and acetone.
The solubility assessment was performed according to the aliquot addition method and visually assessed. About 5 mg of free base was weighed into 8 mL glass vials. Aliquots of 100 μL were added up to 2 mL, followed by aliquots of 1 mL up to 8 mL. The experimental conditions are described in Table 21.

Data set [5] can be described thus: Thermal stability of the free base in solution (HPLC). The settings on record: for Area (HPLC): 1 h.
Setting [6] is: oxalate salt thermocycling, HT-XRPD.
The mark [7] stands for this setting: 0.2M phosphate buffer pH 6, 37° C., about 1 mg salt in 1 mL.
The mark [8] stands for this setting: 0.2M phosphate buffer pH 6, 37° C., about 5 mg salt in 1 mL.
Setting [9] is: water, 37° C., about 1 mg salt in 1 mL.
Where [10] appears, read: water, 37° C., about 5 mg salt, up to 1 mL.

Consider `CN1CCC(c2c(O)cc(O)c3c(=O)cc(-c4ccc(C(F)(F)F)cc4Cl)oc23)C1CO.O=C(O)C(=O)O` (stereo not drawn) [Oxa2 + peaks], for which the “Solid forms Ambient AAC” value in data set [1] (oxalate salt thermocycling, ambient-dried solids after AAC (40° C./75% RH, 2 days), HT-XRPD) is “Oxa2 + peaks”. The “Solid forms Vacuum AAC” value in data set [1] (setting [6]) was “Oxa2 + peaks”. The “Solid forms Vacuum” value in data set [2] (oxalate salt thermocycling solids, label = ambient-dried form) is “Oxa2 + peaks”.
With `CN1CC[C@@H](c2c(O)cc(O)c3c(=O)cc(-c4ccc(C(F)(F)F)cc4Cl)oc23)[C@@H]1CO.CN1CC[C@@H](c2c(O)cc(O)c3c(=O)cc(-c4ccc(C(F)(F)F)cc4Cl)oc23)[C@@H]1CO.O.O=C(O)C(=O)O` [Oxa1], the “Physical stability upon exposure to AAC” value in data set [1] (40° C./75% RH, 2 days) is given as “stable when exposed to advanced aging conditions; also recorded: physically stable under short term stress conditions; also recorded: physically stable upon exposure to AAC for two days; also recorded: remained stable upon exposure to AAC”. For the same molecule, in data set [1] (oxalate salt cooling crystallization solids, AAC (40° C./75% RH, 1 day)), the “Stability AAC” value is “Stable”. In addition, the “Solid forms Vacuum AAC” value in data set [1] (setting [6]) was “Oxa1”. Besides, the “Solid phase AAC (XRPD form after accelerated aging)” value in data set [1] (precipitated solids of the salt screen, dried under vacuum at 50° C., 40° C./75% RH for 2 days, HT-XRPD) is “Oxa1”. In addition, in data set [1] (salt screen solids, 40° C./75% RH, 2 days), the “Stable during AAC” value is given as “Yes”. Also, the Vacuum result in data set [2] (oxalate salt cooling crystallization, form after drying under deep vacuum (5 mbar), label = ambient-dried form) was “Oxa1”. For the same molecule, in data set [2], the “Physical stability upon drying under deep/high vacuum” value is recorded as “physically stable”. Further, the “Solubility in phosphate buffer” value in data set [3] (0.2 M phosphate buffer pH 6, 37° C., 4 hours) stood at 30 µg/mL. The solubility in data set [3] (0.2M phosphate buffer pH 6, 37° C., 4 hours, about 1 mg salt in 1 mL) was 20 µg/mL; in data set [3] (0.2M phosphate buffer pH 6, 37° C., 4 hours, about 5 mg salt in 1 mL) it was 30 µg/mL; in data set [3] (water, 37° C., 4 hours, about 1 mg salt in 1 mL), “hazy”; in data set [3] (water, 37° C., 4 hours, about 5 mg salt, up to 1 mL), “hazy”. Also, the “Solids recovered / salt dissociation after solubility determination in buffer” value in data set [3] (0.2 M phosphate buffer pH 6, 37° C., 4 hours, XRPD) was “The salt had dissociated in the buffer”. The “Form (4 h) of residual solid” value in data set [3] (setting [7]) is reported as “Am”; in data set [3] (setting [8]), “Free”; in data set [3] (setting [9]) it was “Free”; in data set [3] (setting [10]) it was “Oxa1”. The “pH (4 h)” value in data set [3] (setting [7]) is 6.0; in data set [3] (setting [8]) it was 5.8; in data set [3] (setting [9]), 4.4; in data set [3] (setting [10]) it was 4.3. In addition, the “Solids recovered after solubility determination in water” value in data set [3] (water, 37° C., 4 hours, XRPD) is “The residual solids of the suspension were identical to Oxa1”.
On to `CN1CC[C@@H](c2c(O)cc(O)c3c(=O)cc(-c4ccc(C(F)(F)F)cc4Cl)oc23)[C@@H]1CO` [Voruciclib, (+)-trans-2-(2-chloro-4-trifluoromethylphenyl)-5,7-dihydroxy-8-(2-hydroxymethyl-1-methylpyrrolidin-3-yl)-chromen-4-one], for which the “Solubility at RT” value is about 1000 µg/mL (≈ 2.13 mM) in data set [4] (1,4-Dioxane); about 8000 µg/mL (≈ 17 mM) in data set [4] (2-Propanol); about 5000 µg/mL (≈ 10.6 mM) in data set [4] (Acetonitrile); about 5000 µg/mL (≈ 10.6 mM) in data set [4] (Chloroform); about 1000 µg/mL (≈ 2.13 mM) in data set [4] (Ethyl acetate); under 1000 µg/mL in data set [4] (Water). Moreover, the Solubility in words entry in data set [4] (THF) was “soluble”; in data set [4] (methanol, ethanol and acetone) it was “sparingly soluble”; in data set [4] (water), “practically insoluble”. The solubility in data set [4] (organic solvent or mixture, 1,4-Dioxane, approximate, solvent addition, read-out: Solubility) is about 1000 µg/mL (≈ 2.13 mM); in data set [4] (organic solvent or mixture, 2-Propanol, approximate, solvent addition, read-out: Solubility), about 8000 µg/mL (≈ 17 mM); in data set [4] (organic solvent or mixture, Acetone, approximate, solvent addition, read-out: Solubility), 10000 to 13000 µg/mL (≈ 21.3 to 27.7 mM); in data set [4] (organic solvent or mixture, Acetonitrile, approximate, solvent addition, read-out: Solubility), about 5000 µg/mL (≈ 10.6 mM); in data set [4] (organic solvent or mixture, Chloroform, approximate, solvent addition, read-out: Solubility), about 5000 µg/mL (≈ 10.6 mM); in data set [4] (organic solvent or mixture, Ethanol, approximate, solvent addition, read-out: Solubility), 14000 to 18000 µg/mL (≈ 29.8 to 38.3 mM). In addition, the solubility in data set [4] (organic solvent or mixture, Ethyl acetate, approximate, solvent addition, read-out: Solubility) was about 1000 µg/mL (≈ 2.13 mM); in data set [4] (organic solvent or mixture, Methanol, approximate, solvent addition, read-out: Solubility), 17000 to 26000 µg/mL (≈ 36.2 to 55.3 mM); in data set [4] (organic solvent or mixture, Tetrahydrofuran, approximate, solvent addition, read-out: Solubility) it was 30000 to 60000 µg/mL (≈ 63.9 to 128 mM); in data set [4] (organic solvent or mixture, solvents other than THF, methanol, ethanol, acetone, read-out: Solubility in other solvents) it was under 10000 µg/mL; in data set [4] (Water, approximate, solvent addition, read-out: Solubility), under 1000 µg/mL. Further, the “Area (HPLC)” value in data set [5] (Acetone solution, 25° C.) came to 1562.10 mAu*s; in data set [5] (Acetone solution, 50° C.) it was 1566.22 mAu*s; in data set [5] (Acetone solution, 80° C.) it was 1566.56 mAu*s; in data set [5] (Ethanol solution, 25° C.) it was 1633.32 mAu*s; in data set [5] (Ethanol solution, 50° C.), 1625.98 mAu*s; in data set [5] (Ethanol solution, 80° C.) it was 1625.83 mAu*s. Further, the “Area (HPLC)” value in data set [5] (Tetrahydrofuran solution, 25° C.) is given as 1697.99 mAu*s; in data set [5] (Tetrahydrofuran solution, 50° C.), 1713.96 mAu*s; in data set [5] (Tetrahydrofuran solution, 80° C.), 1701.15 mAu*s. The “Thermal stability in solution” value in data set [5] (THF, ethanol, acetone solutions, RT 24 h, 50° C. and 80° C. 1 h, HPLC purity) is “thermally stable in solution”. Further, in data set [3] (0.2M phosphate buffer (pH 6), 37° C., 4 hours, listed as Voruciclib Free base), the “Solubility pH 6” value is 0.01 mg/mL. Also, in data set [3] (water, 37° C., 4 hours, listed as Voruciclib Free base), the Solubility water is under 10 µg/mL.
Take `CN1CCC(c2c(O)cc(O)c3c(=O)cc(-c4ccc(C(F)(F)F)cc4Cl)oc23)C1CO.O=P(O)(O)O` (stereo not drawn) [Pho7]: the “Physical stability upon exposure to AAC” value in data set [1] (40° C./75% RH, 2 days) was “additional diffraction peaks were observed; also recorded: unstable upon exposure to AAC”. Besides, the “Physical stability upon drying under deep/high vacuum” value in data set [2] was “remained physically stable”. In addition, the “Solid forms Vacuum” value in data set [2] (phosphate salt thermocycling solids, label = ambient-dried form) is “Pho7”.

Values taken from patent publication US12421216B2, “Voruciclib polymorphs and methods of making and using thereof” (MEI PHARMA, INC., priority 2019, dated 2025).
